Tested on: cultured hair follicles
Assay: Radioactive cysteine incorporation in cultured hair follicles as a measure of hair growth
Assay type: cell-based, mice
Description: In this system, follicles were dissected from 4 day old mice. Healthy follicles were selected visually and cultured in serum free media supplemented with insulin, transferrin and selenium. The activity of compositions comprising one or more of the test compounds in stimulating hair growth was measured by radioactive cysteine labeling of the newly formed hair proteins and expressed as a percentage of the activity of a control (i.e., no test compounds present).

Substance: Glycyl-L-Histidyl-L-Lysyl-L-Valyl-L-Phenylalanyl-L-Valine: Copper Complex
- radioactive cysteine incorporation relative to control (result in words) (at the concentrations used (Minoxidil 1 mM, peptide copper complex 10 μM)): stimulated radioactive cysteine incorporation above that of the control
- % of Cysteine Incorporation of Control (no addition) (peptide copper complex 10 μM, follicles from 4 day old mice, serum free media): 113%

From patent US20040142853A1, “Stimulation of hair growth by compositions containing peptide copper complexes and minoxidil” (priority 2002, published 2004)
